Laboratory results reported in ChEMBL document CHEMBL5120865, “Exploration of 6-methyl-7-(Hetero)Aryl-7-Deazapurine ribonucleosides as antileishmanial agents” (Eur J Med Chem, 2022).
pEC50: −log10 of the molar value.

Assays:
[1] = Metabolic stability in golden hamster liver microsomes S9 fraction assessed as CYP450-mediated metabolism by measuring parent compound remaining measured after 15 mins in presence of NADPH; format: ADME, subcellular, Mesocricetus auratus; details: read-out: Stability
Leishmania infantum [2] = experiment: Antileishmanial activity against intracellular Leishmania infantum MHOM/MA(BE)/67 amastigotes infected in golden hamster assessed as reduction of amastigote burdens in spleen at 50 mg/kg, po SID for 10 days by geimsa staining based microscopic analysis; format: functional; design: scale not given: the % may be the effect or the level left; details: time 10 day
Leishmania infantum [3] = experiment: Antileishmanial activity against sodium stibogluconate, potassium antimonyl tartrate and PMM resistant intracellular Leishmania infantum MHOM/FR/96/LEM3323-CI4 PMM promastigotes infected in Swiss mouse peritoneal macrophages assessed as inhibition of parasite growth measured after 96 hrs by microscopic analysis; format: functional, organism-based; details: Peritoneal macrophage
Cytochrome P450 [4] = target: T1, Cytochrome P450 (Homo sapiens, UniProt P04798+P05177+P05181+P08684+P10632+P10635+P11509+P11712+P13584+P20813+P20815+P20853+P24462+P24903+P33260+P33261+P51589+P78329+P98187+Q02928+Q08477+Q16678+Q16696+Q5TCH4+Q6VVX0+Q7Z449+Q8TAV3+Q96SQ9+Q9HB55); experiment: Metabolic stability in human liver microsomes S9 fraction assessed as CYP450-mediated metabolism by measuring parent compound remaining measured after 60 mins in presence of NADPH; format: ADME, subcellular; details: read-out: Stability
[5] = AUC (0 to 8) in golden hamster infected with Leishmania infantum MHOM/MA(BE)/67 amastigotes at 50 mg/kg, po SID and measured after 24 hrs by LC-MS/MS analysis; format: ADME, organism-based, Mesocricetus auratus; design: dose 50 mg/kg, time 24 hrs, route po; details: in vivo
[6] = Half life in golden hamster infected with Leishmania infantum MHOM/MA(BE)/67 amastigotes at 50 mg/kg, po SID and measured after 24 hrs by LC-MS/MS analysis; format: ADME, organism-based, Mesocricetus auratus; details: in vivo
[7] = Metabolic stability in mouse liver microsomes S9 fraction assessed as UGT-mediated metabolism by measuring parent compound remaining measured after 15 mins in presence of NADPH; format: ADME, subcellular; details: read-out: Stability
[8] = Metabolic stability in mouse liver microsomes S9 fraction assessed as CYP450-mediated metabolism by measuring parent compound remaining measured after 60 mins in presence of NADPH; format: ADME, subcellular; details: read-out: Stability
[9] = Toxicity in golden hamster infected with Leishmania infantum MHOM/MA(BE)/67 amastigotes assessed as gross pathological changes at 50 mg/kg, po SID and measured after 10 days; format: organism-based, Mesocricetus auratus; details: in vivo, 240 h, time 10 day
Cytochrome P450 [10] = target: T1, Cytochrome P450; experiment: Metabolic stability in human liver microsomes S9 fraction assessed as CYP450-mediated metabolism by measuring parent compound remaining measured after 15 mins in presence of NADPH; format: ADME, subcellular; details: read-out: Stability
[11] = Selectivity index, ratio of CC50 for Cytotoxicity against Swiss mouse peritoneal macrophages to EC50 for intracellular Leishmania infantum MHOM/MA(BE)/67 ITMAP263 amastigotes infected in Swiss mouse peritoneal macrophages; format: toxicity, cell-based; details: read-out: Ratio CC50/EC50
[12] = target: UDP-glucuronosyltransferases (UGTs) (Homo sapiens, UniProt O60656+O75310+O75795+P06133+P0DTE4+P0DTE5+P16662+P19224+P22309+P22310+P35503+P35504+P36537+P54855+Q6UWM9+Q9BY64+Q9HAW7+Q9HAW8+Q9HAW9); experiment: Metabolic stability in human liver microsomes S9 fraction assessed as UGT-mediated metabolism by measuring parent compound remaining measured after 15 mins in presence of NADPH; format: ADME, subcellular; details: read-out: Stability
[13] = Metabolic stability in golden hamster liver microsomes S9 fraction assessed as CYP450-mediated metabolism by measuring parent compound remaining measured after 30 mins in presence of NADPH; format: ADME, subcellular, Mesocricetus auratus; details: read-out: Stability
[14] = Metabolic stability in mouse liver microsomes S9 fraction assessed as UGT-mediated metabolism by measuring parent compound remaining measured after 60 mins in presence of NADPH; format: ADME, subcellular; details: read-out: Stability
[15] = Clearance in golden hamster infected with Leishmania infantum MHOM/MA(BE)/67 amastigotes at 50 mg/kg, po SID and measured after 24 hrs by LC-MS/MS analysis; format: ADME, organism-based, Mesocricetus auratus; details: in vivo
[16] = Metabolic stability in mouse liver microsomes S9 fraction assessed as CYP450-mediated metabolism by measuring parent compound remaining measured after 15 mins in presence of NADPH; format: ADME, subcellular; details: read-out: Stability
[17] = Cytotoxicity against human MRC5 cells assessed as reduction in cell viability incubated for 3 days by resazurin dye based fluorescence analysis; format: toxicity; details: time 3 day

Cc1ncnc2c1c(-c1cc(Cl)ccn1)cn2[C@@H]1O[C@H](CO)[C@@H](O)[C@H]1O
remaining at 0.25 h [1]: 96%
Activity (Leishmania infantum [2]): -1.8%
pEC50 (Leishmania infantum [3]): 6.10
remaining at 1 h (Cytochrome P450 [4]): 75%
AUC at 24 h [5]: 1660 ng·h/mL
half-life [6]: 2.7 h
remaining at 0.25 h [7]: 103%
remaining at 1 h [8]: 94%
Activity [9]: Non-Toxic
remaining at 0.25 h (Cytochrome P450 [10]): 92%
selectivity ratio [11]: > 94
remaining at 0.25 h [12]: 93%
remaining at 0.5 h [13]: 95%
remaining at 1 h [14]: 100%
CL/F [15]: 56.6 mL/min/kg
remaining at 0.25 h [16]: 109%
CC50 at 72 h [17]: > 64000 nM
